{"source": "patent US20080213341A1", "about": "“Butyric Acid Esters of Carbohydrates and Carbohydrate Polyols” (priority 2005, published 2008)", "key": {"[1]": {"conditions": "oral administration / uptake via food; cited from earlier work"}, "[2]": {"tested_on": "colon cancer", "conditions": "orally administered; cited from earlier work"}, "[3]": {"tested_on": "intestinal bacteria of the human large intestine", "assay": "In vitro fermentation with intestinal bacteria of the human large intestine (feces suspension)", "type": "in vitro ADME", "conditions": "for x-fold increase in the butyrate concentration in the fermentation medium in comparison to the nonesterified carbohydrate or carbohydrate polyol: in vitro fermentation; for butyrate release/formation (in words): in vitro fermentation with human intestinal bacteria; for increase of the butyrate in the fermentation broths: after a short fermentation time", "description": "It was investigated in in vitro fermentation experiments with intestinal bacteria of the human large intestine whether butyric acid esters listed above are hydrolyzed and metabolized by bacteria of the large intestine or their enzymes and butyrate is released in the […]. The following medium was used for in vitro fermentation experiments: [table] 9 ml of the […] medium described above were treated with 0.5% (w/v) of the butyric acid ester to be tested and 0.2% (w/v) of taurocholic acid. This medium was subsequently inoculated with 1 ml of a 10% strength feces suspension (mixed feces of three subjects) in anaerobic 50 mmol/l phosphate buffer, pH 7.0, to which 0.5 g/l of cysteine/HCl had been added as a reductant. Hungate tubes were incubated at 37° C. with shaking for 72 h, samples were taken at different times and these were investigated for short-chain fatty acids, lactic acid and pH. The extent of the metabolization of the test substances was carried out by means of the determination of the release of butyrate."}, "[4]": {"conditions": "0.5% (w/v) substrate, human feces suspension, 37° C., 72 h"}}, "note": "Where two headings read alike, the source gives them in different places.", "data": [{"compound": "CCCC(=O)O", "note": "[butyrate, butyric acid]", "values": [{"measurement": "cleavage / absorption in the small intestine", "setting": "[1]", "result": "rapidly and completely absorbed in the small intestine"}]}, {"compound": "CCCC(=O)OCC(COC(=O)CCC)OC(=O)CCC", "note": "[tributyrin]", "values": [{"measurement": "activity in the prevention of colon cancer", "setting": "[2]", "result": "inactive"}, {"measurement": "cleavage / absorption in the small intestine", "setting": "[1]", "result": "rapidly cleaved in the anterior small intestine"}]}, {"compound": "Heptabutyryldiacetylisomalt", "values": [{"measurement": "g of butyrate/g of substrate", "setting": "[3]; [4]", "result": "0.1 g of butyrate/g of substrate"}, {"measurement": "g of butyrate/g of substrate", "setting": "[3]; 0.5% (w/v) substrate, human feces suspension, 37° C., 72 h, listed as heptabutyryldiacetylisomalt", "result": "about 0.1 g of butyrate/g of substrate"}, {"measurement": "x-fold increase in the butyrate concentration in the fermentation medium in comparison to the nonesterified carbohydrate or carbohydrate polyol", "setting": "[3]; 72 h", "result": 0.4, "unit": "x-fold"}]}, {"compound": "Hexabutyrylsorbitol", "values": [{"measurement": "g of butyrate/g of substrate", "setting": "[3]; [4]", "result": "0.2 g of butyrate/g of substrate"}, {"measurement": "x-fold increase in the butyrate concentration in the fermentation medium in comparison to the nonesterified carbohydrate or carbohydrate polyol", "setting": "[3]; 72 h", "result": 0.8, "unit": "x-fold"}]}, {"compound": "Isomalt [reference compound]", "values": [{"measurement": "g of butyrate/g of substrate", "setting": "[3]; [4]", "result": "0.2 g of butyrate/g of substrate"}, {"measurement": "g of butyrate/g of substrate", "setting": "[3]; 0.5% (w/v) substrate, human feces suspension, 37° C., 72 h, listed as isomalt", "result": "approximately 0.2 g of butyrate/g of substrate"}]}, {"compound": "Octabutyrylisomalt", "values": [{"measurement": "g of butyrate/g of substrate", "setting": "[3]; [4]", "result": "0.1 g of butyrate/g of substrate"}, {"measurement": "g of butyrate/g of substrate", "setting": "[3]; 0.5% (w/v) substrate, human feces suspension, 37° C., 72 h, listed as octabutyrylisomalt", "result": "about 0.1 g of butyrate/g of substrate"}, {"measurement": "x-fold increase in the butyrate concentration in the fermentation medium in comparison to the nonesterified carbohydrate or carbohydrate polyol", "setting": "[3]; 72 h", "result": 0.5, "unit": "x-fold"}]}, {"compound": "Pentabutyrylisomalt", "values": [{"measurement": "g of butyrate/g of substrate", "setting": "[3]; [4]", "result": "0.2 g of butyrate/g of substrate"}, {"measurement": "x-fold increase in the butyrate concentration in the fermentation medium in comparison to the nonesterified carbohydrate or carbohydrate polyol", "setting": "[3]; 72 h", "result": 1.3, "unit": "x-fold"}]}, {"compound": "Pentabutyrylxylitol", "values": [{"measurement": "g of butyrate/g of substrate", "setting": "[3]; [4]", "result": "0.4 g of butyrate/g of substrate"}, {"measurement": "butyrate release/formation (in words)", "setting": "[3]", "result": "Large amounts of butyrate were also released"}, {"measurement": "x-fold increase in the butyrate concentration in the fermentation medium in comparison to the nonesterified carbohydrate or carbohydrate polyol", "setting": "[3]; 72 h", "result": 1.5, "unit": "x-fold"}]}, {"compound": "Tetrabutyryldiacetylsorbitol", "values": [{"measurement": "g of butyrate/g of substrate", "setting": "[3]", "result": "0.3 g of butyrate/g of substrate"}]}, {"compound": "Tetrabutyrylsorbitol", "values": [{"measurement": "g of butyrate/g of substrate", "setting": "[3]; [4]", "result": "0.7 g of butyrate/g of substrate"}, {"measurement": "increase of the butyrate in the fermentation broths", "setting": "[3]", "result": "strong increase"}, {"measurement": "butyrate release/formation (in words)", "setting": "[3]", "result": "high butyrate formation"}, {"measurement": "x-fold increase in the butyrate concentration in the fermentation medium in comparison to the nonesterified carbohydrate or carbohydrate polyol", "setting": "[3]; 72 h", "result": 2.7, "unit": "x-fold"}, {"measurement": "x-fold increase in the butyrate concentration in the fermentation medium in comparison to the nonesterified carbohydrate or carbohydrate polyol", "setting": "[3]; 72 h, listed as tetrabutyrylsorbitol", "result": "more than twofold"}]}, {"compound": "Tetrabutyrylxylitol", "values": [{"measurement": "g of butyrate/g of substrate", "setting": "[3]; [4]", "result": "0.7 g of butyrate/g of substrate"}, {"measurement": "butyrate release/formation (in words)", "setting": "[3]", "result": "high butyrate formation"}, {"measurement": "x-fold increase in the butyrate concentration in the fermentation medium in comparison to the nonesterified carbohydrate or carbohydrate polyol", "setting": "[3]; 72 h", "result": 2.5, "unit": "x-fold"}, {"measurement": "x-fold increase in the butyrate concentration in the fermentation medium in comparison to the nonesterified carbohydrate or carbohydrate polyol", "setting": "[3]; 72 h, listed as tetrabutyrylxylitol", "result": "more than two-fold"}]}, {"compound": "Tributyrylsorbitol", "values": [{"measurement": "g of butyrate/g of substrate", "setting": "[3]; [4]", "result": "0.7 g of butyrate/g of substrate"}, {"measurement": "increase of the butyrate in the fermentation broths", "setting": "[3]", "result": "strong increase"}, {"measurement": "butyrate release/formation (in words)", "setting": "[3]", "result": "high butyrate formation"}, {"measurement": "x-fold increase in the butyrate concentration in the fermentation medium in comparison to the nonesterified carbohydrate or carbohydrate polyol", "setting": "[3]; 72 h", "result": 2.8, "unit": "x-fold"}, {"measurement": "x-fold increase in the butyrate concentration in the fermentation medium in comparison to the nonesterified carbohydrate or carbohydrate polyol", "setting": "[3]; 72 h, listed as tributyrylsorbitol", "result": "more than twofold"}]}, {"compound": "Tributyrylxylitol", "values": [{"measurement": "g of butyrate/g of substrate", "setting": "[3]; [4]", "result": "0.6 g of butyrate/g of substrate"}, {"measurement": "butyrate release/formation (in words)", "setting": "[3]", "result": "Large amounts of butyrate were also released"}, {"measurement": "x-fold increase in the butyrate concentration in the fermentation medium in comparison to the nonesterified carbohydrate or carbohydrate polyol", "setting": "[3]; 72 h", "result": 2.2, "unit": "x-fold"}]}]}
